Values belong to the compound of their own block, whether it stands above or below them.
Legend:
[1] = Hydrolytic stability of boronic ester compounds in HEPES buffer; assay type: physicochemical; details: 24 h time period
Description: (§1) Absorption spectra of compounds B1-B16 were taken on a Perkin-Elmer Lambda 25 UV-visible spectrophotometer. To a 1.0 mL solution at 0.05 mM concentration in HEPES buffer (50 mM, pH 7.5) was added H2O2 (10 uL (0.09 M) in HEPES for compounds B1-B12 and B14-B16, 10 uL (0.9 M) in HEPES for compound B3, and 2.8 uL (0.09 M) in HEPES for compound B13). Spectra were monitored over time at room temperature. Absorption spectra of compounds B17-B21 were taken on a Perkin-Elmer Lambda 25 UV-visible spectrophotometer. To a 1.0 mL solution at 0.05 mM concentration of compounds 1-7 in HEPES buffer (50 mM, pH=7.5) was added H2O2 (10 uL, 0.09 M in HEPES) or KO2 (0.10 mM) with catalase (5 U). Hydrolytic stability was measured by monitoring samples of B19-B21 in HEPES buffer for a 24 h time period. Spectra were monitored over time at room temperature.

[2] = Cleavage of boronic ester/acid protected compounds by H2O2 (UV-Vis, rate constant, HPLC); assay type: physicochemical; details: for rate constant of conversion with an excess of H2O2: pseudo-first order conditions, HEPES buffer; for k, pseudo first-order rate constants calculated with an excess of H2O2: 50 μM in HEPES buffer pH 7.5, room temperature
Description: as §1
The pseudo-first order rate constant was calculated by monitoring the absorption spectra over time in the presence of excess hydrogen peroxide. To a 1.0 mL solution of compounds B1-B3 and B10-B14 in HEPES buffer (50 mM, pH 7.5) at 50 μM was added H2O2 to final concentrations of 150 μM, 250 μM, 500 μM, 750 μM, and 900 μM. Spectra were monitored over 15-30 min at room temperature with at least 50 spectra recorded. The change in absorption at 302 nm for B1-B3, 272 nm for B10, 312 nm for B11, 268 for B12, 306 nm for B13, and 303 nm for B14 were monitored. For compounds B1-B3 and B10-B11, the rate constant (kobs) was found from monitoring the appearance of the monitored absorption peak by plotting the linear slope of ln [(A∞−At)/(A∞)] vs. time (where A∞ is the absorbance of a 50 μM sample of the methyl salicylate for B1-B3, maltol for B10, and 1,2-HOPO for B11). For compounds B12-B14 the rate constant (kobs) was found from monitoring the disappearance of the monitored absorption peak by plotting the linear slope of ln [(A−AZBG)/(A0−AZBG)] vs. time (where AZBG is the absorbance of a 50 μM sample of the ZBG and A0 is the initial absorbance of […]).^3 The rate of conversion was determined from the slope of the line of kobs vs. [H2O2]. The pseudo-first order rate constant was calculated following literature procedure.^[15] To a 1.0 mL solution of compounds B19-B21 in HEPES buffer at 50 μM was added H2O2 to final concentrations of 150 μM, 250 μM, 500 μM, 750 μM, and 900 μM. Spectra were monitored over 15-30 min at room temperature with at least 50 spectra recorded. The change in absorption at 292 nm for B19 and 252 nm for B20 and B21 were monitored. The rate constant (kobs) was found from the linear slope of ln [(A−AZBG)/(A0−AZBG)] vs. time (where AZBG is the absorbance of a 50 μM sample of the ZBG and A0 is the initial absorbance of B19-B21). The rate of conversion was determined from the slope of the line of kobs vs. [H2O2].
Analytical HPLC was performed on a HP Series 1050 system equipped with a Vydac® C18 reverse phase column (218 TP, 250×4.6 mm, 5 μm). […] Starting with 95% A and 5% B, an […] gradient was run for 15 min to a final solvent mixture of 5% A and 95% B, which was held for 5 min before ramping back down to 95% A and 5% B in 2 min and holding for an additional 4 min. Compounds were prepared in HEPES buffer (50 mM, pH 7.5) at a concentration of 1 mM. Retention times of compounds were determined under identical HPLC conditions prior to and after reaction with H2O2. LC-MS(+) was performed on compounds B6, B15 and B16 to confirm cleavage of the boronic ester to the phenolic moiety.

[3] = Stability of protected ZBGs towards KO2 with catalase; assay type: physicochemical; details: KO2 0.10 mM and catalase 5 U, 60 min
Description: as §1

[4] = Solubility in buffered solution / water; assay type: physicochemical; details: relative to the parent analog
MMP-3 = MMP-3 (Homo sapiens, UniProt P08254); details: read-out: IC50 against MMP-3; cited from earlier work
MMP-3, sequence (P08254 100-477, species assumed): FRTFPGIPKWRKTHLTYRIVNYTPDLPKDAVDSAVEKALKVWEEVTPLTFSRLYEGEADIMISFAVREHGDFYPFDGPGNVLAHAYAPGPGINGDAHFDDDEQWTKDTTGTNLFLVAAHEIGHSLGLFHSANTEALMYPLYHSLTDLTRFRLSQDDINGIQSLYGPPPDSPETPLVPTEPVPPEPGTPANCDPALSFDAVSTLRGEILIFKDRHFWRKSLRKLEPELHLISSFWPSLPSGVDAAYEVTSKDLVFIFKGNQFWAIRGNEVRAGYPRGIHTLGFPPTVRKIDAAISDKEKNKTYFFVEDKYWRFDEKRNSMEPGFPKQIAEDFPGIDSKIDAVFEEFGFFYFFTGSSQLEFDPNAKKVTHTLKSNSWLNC

MMP-12 = MMP-12 (Homo sapiens, UniProt P39900); details: read-out: IC50 against MMP-12; cited from earlier work
MMP-12, sequence (P39900 106-470): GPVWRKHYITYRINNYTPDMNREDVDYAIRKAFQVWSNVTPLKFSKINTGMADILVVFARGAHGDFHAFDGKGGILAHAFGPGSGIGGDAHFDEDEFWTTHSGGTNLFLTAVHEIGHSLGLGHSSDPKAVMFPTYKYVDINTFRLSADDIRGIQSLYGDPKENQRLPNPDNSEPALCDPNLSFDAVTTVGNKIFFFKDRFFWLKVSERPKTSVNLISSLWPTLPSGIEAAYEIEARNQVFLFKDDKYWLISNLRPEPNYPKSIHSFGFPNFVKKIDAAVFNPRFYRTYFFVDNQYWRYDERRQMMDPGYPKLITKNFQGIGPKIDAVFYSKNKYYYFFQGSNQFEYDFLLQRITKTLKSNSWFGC

MMP-8 = MMP-8 (Homo sapiens, UniProt P22894); details: read-out: IC50 against MMP-8; cited from earlier work
MMP-8, sequence (P22894 101-467): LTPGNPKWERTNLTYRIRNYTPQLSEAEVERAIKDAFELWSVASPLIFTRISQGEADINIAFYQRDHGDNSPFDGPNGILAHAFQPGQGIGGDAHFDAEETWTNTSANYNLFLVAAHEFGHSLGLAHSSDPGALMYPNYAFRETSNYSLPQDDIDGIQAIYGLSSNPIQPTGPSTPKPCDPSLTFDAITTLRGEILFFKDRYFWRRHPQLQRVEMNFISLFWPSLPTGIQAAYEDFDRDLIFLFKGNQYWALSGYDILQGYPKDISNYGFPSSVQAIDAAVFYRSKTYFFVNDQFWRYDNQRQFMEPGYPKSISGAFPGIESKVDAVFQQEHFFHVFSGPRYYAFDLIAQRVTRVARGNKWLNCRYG

[5] = target: T1, MMP-9 (catalytic domain, human, recombinant) (Homo sapiens, UniProt P14780); assay: MMP-9 inhibition assay of boronic ester proinhibitors (IC50; activation with H2O2); assay type: biochemical; details: active inhibitor; read-out: IC50 against MMP-9
T1 construct: MMP-9 (catalytic domain, human, recombinant); purchased BIOMOL International
T1 sequence (P14780 107-444 limits assumed): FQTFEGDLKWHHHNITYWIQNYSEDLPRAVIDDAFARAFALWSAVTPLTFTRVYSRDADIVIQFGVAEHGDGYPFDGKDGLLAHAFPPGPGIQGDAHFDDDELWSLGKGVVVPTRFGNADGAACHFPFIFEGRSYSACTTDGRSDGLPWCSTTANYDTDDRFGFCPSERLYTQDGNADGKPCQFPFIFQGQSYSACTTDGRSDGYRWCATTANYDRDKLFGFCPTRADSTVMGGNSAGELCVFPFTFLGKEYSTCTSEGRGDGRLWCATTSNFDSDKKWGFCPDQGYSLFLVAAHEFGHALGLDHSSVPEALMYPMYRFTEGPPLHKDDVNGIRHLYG
Description: MMP-9 (catalytic domain, human, recombinant) and MMP-12 (catalytic domain, human, recombinant) were purchased from Enzo Life Sciences. The assays were carried out in 96-well plates using a Bio-Tek Flx 800 plate reader. IC50 values were obtained for proinhibitors B17 and B18 against MMP-9 and MMP-12. Serial dilutions of the compounds dissolved in DMSO were incubated at 37° C. for 30 minutes with 20 μL of the appropriate MMP (0.45 U/mL for MMP-9 and 0.35 U/mL for MMP-12) in MMP assay buffer (50 mM HEPES, 10 mM CaCl2, 0.10% Brij-35, pH 7.5), for a total volume of 99 pt. The reaction was initiated by the addition of 1 μL (400 μM) of the fluorescent substrate (Mca-Pro-Leu-Gly-Leu-Dpa-Ala-Arg-NH2 where Mca=(7-methoxycoumarin-4-yl)-acetyl and Dpa=N-3-(2,4-dinitrophenyl)-L-α-β-diaminopropionyl)) and kinetic activity was measured every minute for 20 min with excitation and emission wavelengths at 335 nm and 405 nm, respectively. Measurements were performed in duplicate. The percent inhibition was plotted versus the inhibitor concentration. A linear fit of the data for each experiment gives the IC50 value of the inhibitor where y=50%.
MMP activity in the presence of H2O2 was evaluated with both MMP-9 and MMP-12 with 1 h of activation at concentrations close to their IC50 values. Using the calculated rate constants for the protected ZBGs B19 and B20, it was determined that 1 h of activation time for each proinhibitor with 100 μM H2O2 will provide enough 1,2-HOPO-2 or PY-2 to inhibit the MMPs at 50%. For example, for proinhibitor B17 with MMP-9, if the rate=k[B17][H2O2] and k=3.9 M^−1s^−1, [B17]=10 μM, and [H2O2]=100 μM, the rate of conversion would be 3.9×10^−9 M/s. Therefore, activation for 1 h would release 14 μM 1,2-HOPO-2, or enough inhibitor to provide approximately 50% inhibition of MMP-9 (IC50 value for 1,2-HOPO-2 against MMP-9 is ˜6 μM).
In each well, 1 μL of proinhibitors B17 and B18 and the inhibitors 1,2-HOPO-2 and PY-2 in DMSO (1 mM for MMP-9 or 5 μM for MMP-12) were incubated for 1 h at 37° C. with 10 μL H2O2 (1 mM in HEPES buffer, pH 7.5) in MMP assay buffer for a total volume of 79 pt. […] After activation of the proinhibitors, 20 μL of the appropriate MMP (0.45 U/mL for MMP-9 and 0.35 U/mL for MMP-12) was added and incubated for an additional 30 min. The reaction was initiated by the addition of 1 pt (400 μM) of the fluorescent substrate and kinetic activity was measured every minute for 20 min with excitation and emission wavelengths at 335 nm and 405 nm, respectively. Enzyme activity with inhibitor was calculated with respect to the control experiment (no inhibitor present). Measurements were performed in duplicate in two independent experiments.

[6] = Hydrolytic stability of sulfonate esters in HEPES buffer; assay type: physicochemical; details: in 6 h
Description: (§2) Absorption spectra of compounds were taken on a Perkin-Elmer Lambda 25 UV-Visible Spectrophotometer. To a 1.0 mL solution at 0.05 mM concentration of each compound in HEPES buffer (50 mM, pH 7.5) was added H2O2 (10 μL, 0.09M in HEPES) and absorption spectra were monitored over time at room temperature. Hydrolytic stability was measured by monitoring each sample in HEPES buffer over a 24 hour time period.

[7] = Cleavage of sulfonate ester PZBGs and proMMPi by H2O2 (UV-Vis, rate constant, HPLC); assay type: physicochemical; details: 50 μM in HEPES buffer, room temperature
Description: as §2
The pseudo-first order rate constant was calculated following literature procedure. To a 1.0 mL solution of compounds PZBG-1a, PZBG-1b, PZBG-1e, PZBG-5a, and PZBG-5b in HEPES buffer at 50 μM was added H2O2 to final concentrations of 150 μM, 250 μM, 500 μM, 750 μM, and 900 μM. Spectra were monitored over 15-30 min at room temperature with at least 50 spectra recorded at every concentration. The change in absorption at 298 nm for PZBG-1a and PZBG-1b were monitored, while the change in absorption at 288 nm was recorded for PZBG-1e, and 310 nm for PZBG-5a and PZBG-5b. The rate constant (kobs) was found from the linear slope of ln [(A−AZBG)/(Ao−AZBG)] vs. time where AZBG is the absorbance of a 50 μM sample of the ZBG or full-length inhibitor and AO is the initial absorbance of PZBG-1a, PZBG-1b, PZBG-1e, PZBG-5a, and PZBG-5b. The rate of conversion was determined from the slope of the line of kobs vs. [H2O2].
Analytical HPLC was performed on a HP Series 1050 system equipped with a Vydac® C18 reverse phase column (218 TP, 250×4.6 mm, 5 μm). […] Starting with 95% A and 5% B, an […] gradient was run for 15 min to a final solvent mixture of 5% A and 95% B, which was held for 5 min before ramping back down to 95% A and 5% B in 2 min and holding for an additional 4 min. Compounds ZBG-1a and PZBG-1a were prepared in HEPES buffer (50 mM, pH 7.5) at a concentration of 1 mM and retention times were determined. To evaluate cleavage by H2O2, a 1 mM solution of PZBG-1a in HEPES buffer was reacted with a 20-fold excess of H2O2 before analyzing under identical HPLC conditions as before.

Compound: CC1(C)OB(c2ccc(COn3ccccc3=O)cc2)OC1(C)C [Compound B19, 1-((4-(4,4,5,5-tetramethyl-1,3,2-dioxaborolan-2-yl)benzyl)oxy)pyridin-2(1H)-one]
- solution stability in buffer [1]: stable
- rate constant of conversion with an excess of H2O2 [2]: 4.0 M⁻¹ s⁻¹
- stability towards KO2 [3]: stable towards KO2

Compound: Cc1occc(=O)c1OCc1ccc(B(O)O)cc1 [Compound B10, (4-(((2-Methyl-4-oxo-4H-pyran-3-yl)oxy)methyl)phenyl)boronic acid]
- k, pseudo first-order rate constants calculated with an excess of H2O2 [2]: 3.1 ± 0.5 M⁻¹ s⁻¹
- solubility [4]: improved solubility

Compound: O=C(NCc1ccc(-c2ccccc2)cc1)c1cccc(=O)n1O [1,2-HOPO-2, N-(Biphenyl-4-ylmethyl)-1-hydroxy-6-oxo-1,6-dihydropyridine-2-carboxamide]
- IC50 (MMP-3): < 100 nM
- IC50 (MMP-12): < 100 nM
- IC50 (MMP-8): < 100 nM
- IC50 [5]: ~6000 nM

Compound: O=c1ccccn1OCc1ccc(B(O)O)cc1 [Compound B11, (4-(((2-Oxopyridin-1(2H)-yl)oxy)methyl)phenyl)boronic acid]
- k, pseudo first-order rate constants calculated with an excess of H2O2 [2]: 5.9 ± 0.2 M⁻¹ s⁻¹
- rate constant of conversion with an excess of H2O2 [2]: 5.9 M⁻¹ s⁻¹
- solubility [4]: improved solubility

Further lines, with some results ahead:

- solution stability in buffer [1]: stable
- stability towards KO2 [3]: stable towards KO2
Compound: Cc1occc(=O)c1OCc1ccc(B2OC(C)(C)C(C)(C)O2)cc1 [Compound B20, 2-methyl-3-((4-(4,4,5,5-tetramethyl-1,3,2-dioxaborolan-2-yl)benzyl)oxy)-4H-pyran-4-one]
- rate constant of conversion with an excess of H2O2 [2]: 2.9 M⁻¹ s⁻¹

- cleavage in buffer [6]: ~50%
- solubility [4]: substantial increase in solubility
Compound: O=C(O)c1ccc(S(=O)(=O)On2ccccc2=O)cc1 [PZBG-1e, 4-(((2-Oxopyridin-1(2H)-yl)oxy)sulfonyl)benzoic acid]
- pseudo-first order rate constant with an excess of H2O2 [7]: 1.3 M⁻¹ s⁻¹

Reference: patent US8889638B2, “Stimulus-triggered prodrugs” (The Regents of the University of California, priority 2010, dated 2014)
